# Laboratory results taken from PMC12267714 (Nature Communications, 2025).
# Structures can show the parent of a compound that is named as a salt.
# Conditions: mouse, in vivo, 20 mg/kg
structure (smiles),measurement,value
CN(C)C(=O)COC(=O)Cc1ccc(OC(=O)c2ccc(NC(=N)N)cc2)cc1 [camostat mesylate],level in the plasma after oral delivery,no detectable level
